In BindingDB's records for doi:10.1021/jm00126a013 (University of California, 1989) one finds IC50 data, which are given here for 67 compounds.

The first assay has as its target Vesicular acetylcholine transporter (Torpedo californica). Kind of assay: Inhibition of active transport of [3H]acetylcholine using purified Torpedo californica synaptic vesicles.
The term IC50 denotes the concentration at which inhibition is half-maximal. Low values mean inhibition by little substance, high ones a need for much substance. The compound `COc1ccc2c3c1OC1C(O)C=CC4C(C2)N(C2CCCCC2O)CCC341` (configuration not stated) returned an IC50 of 80000 nM. For the compound `CNc1ccc(C2CCN(C3CCCCC3O)CC2)cc1` (configuration not stated), inhibition was half-maximal at 400 nM (IC50). This IC50 lies about 200-fold lower than the previous one. With `CN(CCc1ccccc1)C1CCCCC1O` (configuration not stated), the IC50 is 20000 nM. On the same count and under the same terms, to `OC1CCCCC1N1CCC(Cc2ccccc2)CC1` (configuration not stated) belongs 300 nM; to `SC1CCCCC1N1CCC(c2ccccc2)CC1` (configuration not stated), 4000 nM; to `Nc1ccc(C2CCN(C3CCCCC3O)CC2)cc1` (configuration not stated), 500 nM. In turn, `OC1CCCCC1N1C=NC(c2ccccc2)C1` (configuration not stated) showed a half-inhibitory concentration (IC50) of 40000 nM. Turning to `OC1CCCCC1N1CCN(Cc2ccc3c(c2)OCO3)CC1` (configuration not stated), the IC50 was found to be 300 nM. Still for that read-out and setting: then `O=C(CCC(=O)Nc1cccc2c1CC(N1CCC(c3ccccc3)CC1)C(O)C2)NNC(=O)CCC(=O)Nc1cccc2c1CC(N1CCC(c3ccccc3)CC1)C(O)C2` (configuration not stated) [N-[6-Hydroxy-7-(4-phenyl-piperidin-1-yl)-5,6,7,8-tetrahydro-naphthalen-1-yl]-4-(N'-{3-[6-hydroxy-7-(4-phenyl-piperidin-1-yl)-5,6,7,8-tetrahydro-naphthalen-1-ylcarbamoyl]-propionyl}-hydrazino)-4-oxo-butyramide], with 1000 nM; and `CC1CN(C2CCCCC2O)CCN1c1ccccc1` (configuration not stated), with 300 nM; and `O=c1[nH]c2ccccc2n1C1CCN(C2CCCCC2O)CC1` (configuration not stated), with 1000 nM. Turning to `CC(=O)OC1CCCCC1[N+]1(C)CCC(c2ccccc2)CC1` (configuration not stated), the IC50 worked out at 5000 nM. In the case of `OC1CCCCC1N1CCC(CCC2CCN(C3CCCCC3O)CC2)CC1` (configuration not stated), the IC50 is greater than 1000 nM. `O=C1CCC2(O)C3Cc4ccc(O)c5c4C2(CCN3C2CCCCC2O)C1O5` (configuration not stated) showed an IC50 greater than 100000 nM.

Consider `O=C(CCCCC1SCC2NC(=O)NC21)Nc1cccc2c1CC(N1CCC(c3ccccc3)CC1)C(O)C2` (configuration not stated), for which half-maximal inhibition (IC50) was put at 100 nM. `OC1CCCCC1N1CCC(CCCC2CCN(C3CCCCC3O)CC2)CC1` (configuration not stated) had a concentration for half-maximal inhibition (IC50) of 200 nM. Against the preceding compound, the IC50 is about 2-fold higher. On to `OC1CCCCC1N1CC=C(c2ccccc2)CC1` (configuration not stated), for which the IC50 came to 200 nM. `OC1CN(C2CCCCC2O)CCC1c1ccccc1` (configuration not stated) had a half-maximal inhibitory concentration (IC50) of 200 nM. Consider `O=C(CCCCC1SCC2NC(=O)NC21)NCC(=O)NCC(=O)Nc1cccc2c1CC(N1CCC(c3ccccc3)CC1)C(O)C2` (configuration not stated), for which the half-inhibitory concentration (IC50) was 200 nM. Consider `CCC(O)C[N+]1(C)CCC(c2ccccc2)CC1` (configuration not stated), for which it took 2000 nM to reach half-maximal inhibition (IC50). The compound `OC[C@H]1CC[C@@H](O)[C@H](N2CCC(c3ccccc3)CC2)C1` returned an IC50 of 800 nM. On the same count and under the same terms, then `OC1CCCCC1N1CCC(CCCc2ccccc2)CC1` (configuration not stated), with 70 nM; and `OC1CCCCC1N1CCN(c2ccccc2)CC1` (configuration not stated), with 300 nM. Turning to `C[N+]1(CCO)CCC(c2ccccc2)CC1` (configuration not stated), the half-maximal inhibitory concentration (IC50) amounted to 8000 nM. Compared with the last compound, the IC50 is about 27-fold higher.

`CC(=O)Nc1ccc(C2CCN(C3CCCCC3O)CC2)cc1` (configuration not stated): inhibition was half-maximal at 20000 nM (IC50).

The compound `CC(C)(C)[C@H]1CC[C@@H](O)[C@H](N2CCC(c3ccccc3)CC2)C1` [trans-(4S)-4-tert-butyl-2-(4-phenylpiperidin-1-yl)cyclohexanol] yielded a concentration for half-maximal inhibition (IC50) of 20 nM. This IC50 is about 1000-fold lower than that of the compound before. With `Cc1ccccc1N1CCN(C2CCCCC2O)CC1` (configuration not stated), the half-inhibitory concentration (IC50) came to 100 nM. The compound `CC(=O)Nc1ccc(I)c2c1CC(N1CCC(c3ccccc3)CC1)C(O)C2` (configuration not stated) registered an IC50 of 300 nM. As to `O=[N+]([O-])c1ccc(C2CCN(C3CCCCC3O)CC2)cc1` (configuration not stated), the IC50 stood at 100 nM. This IC50 lies about 3-fold lower than the previous one.

On to `CC(=O)Nc1cccc2c1CC(O)C(N1CCC(c3ccccc3)CC1)C2` (configuration not stated), for which the IC50 is greater than 2000 nM.

The compound `CC1(c2ccccc2)CCCN(C2CCCCC2O)C1` (configuration not stated) showed a half-inhibitory concentration (IC50) of 4000 nM. In other words, the single-digit micromolar range. `CN(CCCc1ccccc1)C1CCCCC1O` (configuration not stated) came in with an IC50 of 2000 nM. Turning to `O=C(O)CCC(=O)Nc1cccc2c1CC(N1CCC(c3ccccc3)CC1)C(O)C2` (configuration not stated), the IC50 turned out to be 50 nM. Compared with the last compound, the IC50 is about 40-fold lower. The compound `CO[C@H]1CCC[C@@H](N2CCC(c3ccccc3)CC2)[C@@H]1O` displayed an IC50 of 2000 nM. This IC50 lies about 40-fold higher than the previous one. Compound `CN(Cc1ccccc1)C1CCCCC1O` (configuration not stated) displayed an IC50 of 10000 nM.

With `O=C(Nc1cccc2c1CC(O)C(N1CCC(c3ccccc3)CC1)C2)C(F)(F)F` (configuration not stated), half-maximal inhibition (IC50) was put at 2000 nM. Consider `OC1CCCCC1N1CCCCC1` (configuration not stated), for which the IC50 was greater than 40000 nM. As for `C[N+]1(C2CCCCC2O)CCC(c2ccccc2)CC1` (configuration not stated), the IC50 is greater than 1000 nM.

The compound `OC1CCCCC1N1CCC(C2CCN(C3CCCCC3O)CC2)CC1` (configuration not stated) showed an IC50 of 200 nM. `CCC(O)CN1CCC(c2ccccc2)CC1` (configuration not stated) showed a half-maximal inhibitory concentration (IC50) of 300 nM.

In turn, `O[C@H]1[C@H](N2CCC(c3ccccc3)CC2)CCC[C@H]1c1ccccc1` registered an IC50 of 600 nM. Same read-out and setting: to `CC(=O)OCCN1CCC(c2ccccc2)CC1` belongs 9000 nM.

Consider `O[C@@H]1CCCC[C@H]1CN1CCC(c2ccccc2)CC1`, for which it took 2000 nM to reach half-maximal inhibition (IC50). For the compound `CN(C)c1ccc(C2CCN(C3CCCCC3O)CC2)cc1` (configuration not stated), the IC50 amounted to 300 nM. For `CCC(CN1CCC(c2ccccc2)CC1)OC(C)=O` (configuration not stated), the half-inhibitory concentration (IC50) is 800 nM. `Nc1cccc2c1CC(O)C(N1CCC(c3ccccc3)CC1)C2` (configuration not stated) had a concentration for half-maximal inhibition (IC50) of 300 nM. In the case of `CC(=O)OC1CCCCC1N1CCC(c2ccccc2)CC1` (configuration not stated), the IC50 stood at 2000 nM.

`CC(=O)OCC[N+]1(C)CCC(c2ccccc2)CC1` (configuration not stated) yielded an IC50 of 4000 nM. `O=C(c1ccccc1)N1CCN(C2CCCCC2O)CC1` (configuration not stated) had an IC50 of 10000 nM.

Regarding `CC(C)(C)[C@H]1CC[C@@H](N2CCC(c3ccccc3)CC2)[C@H](O)C1`, half-maximal inhibition (IC50) required 90 nM. This IC50 lies about 110-fold lower than the previous one. The compound `OC1CCCCC1NC1CCc2ccccc21` (configuration not stated) came in with an IC50 of 3000 nM.

In turn, `OC1CCCC1N1CCC(c2ccccc2)CC1` (configuration not stated) yielded a concentration for half-maximal inhibition (IC50) of 2000 nM.

The compound `OC1CCCCC1N1CC=C(c2ccc(Cl)cc2)CC1` (configuration not stated) yielded a concentration for half-maximal inhibition (IC50) of 200 nM. `OC1CCCCC1N1CCC(c2ccc(Cl)cc2)CC1` (configuration not stated) came in with an IC50 of 100 nM. Still for that read-out and setting: to `O[C@H]1CCCC[C@H]1CN1CCC(c2ccccc2)CC1` belongs 1000 nM; to `O[C@@H]1[C@H](O)CCC[C@H]1N1CCC(c2ccccc2)CC1`, 100 nM; to `Nc1cccc2c1CC(N1CCC(c3ccccc3)CC1)C(O)C2` (configuration not stated), 100 nM.

The compound `OCCN1CCC(c2ccccc2)CC1` came in with a 50% inhibitory concentration (IC50) of 10000 nM.

Take `O=C(O)CCC(=O)Nc1cccc2c1CC(O)C(N1CCC(c3ccccc3)CC1)C2` (configuration not stated): the IC50 amounted to 500 nM.

With `Cc1ccc(C)c(N2CCN(C3CCCCC3O)CC2)c1` (configuration not stated), the IC50 was found to be 100 nM.

For `OC1CCCCC1N1CC2CCC(CC2)C1` (configuration not stated), the IC50 was 20000 nM. `CC1(O)CCCC[C@H]1N1CCC(c2ccccc2)CC1` (some centres not stated): the 50% inhibitory concentration (IC50) came to 6000 nM. `COc1ccc(N2CCN(C3CCCCC3O)CC2)cc1` (configuration not stated): the IC50 amounted to 300 nM. As to `O=C1CCCCC1N1CCC(c2ccccc2)CC1` (configuration not stated), it took 40000 nM to reach half-maximal inhibition (IC50). `O=[N+]([O-])c1ccc(C2CCN(C3CCCCC3O)CC2)c([N+](=O)[O-])c1` (configuration not stated) displayed a half-maximal inhibitory concentration (IC50) of 300 nM. `OC1C2CCC1C(N1CCC(c3ccccc3)CC1)C2` (configuration not stated) showed an IC50 of 10000 nM. Against the preceding compound, the IC50 is about 33-fold higher.

Another assay shares this target. Described as above. This is another data set of the same source.
`COc1ccccc1N1CCN(C2CC3CCCCC3CC2O)CC1` (configuration not stated) came in with an IC50 of 300 nM.
